# “And” between values parts separate entries of the source, which are not always exact repeats. Equal entries are not always repeated.
# Assays:
# Type in all cases: cell-based, human
# [1] = system: TGK; assay: TGK immunolabeling in situ in NHEK cultures (Example 3); conditions: 72 hours; for TGK Fluorescence intensity/Number of cells: individual values (n=3); for TGK expression in the NHEK cultures (in words): activity higher than CaCl2 reference as by 10 μg/ml
# Experimental: Normal human epidermal keratinocytes (NHEK); reference BIOalternatives K341, used at the third passage. Culture conditions: 37° C., 5% CO2 Culture medium: keratinocytesSFM complemented with an epidermal growth factor (EGF) 0.25 ng/ml, a pituitary extract (PE) 25 μg/ml and gentamycin […]. Experiment medium: keratinocytesSFM complemented with gentamycin 25 μg/ml. The keratinocytes have been sowed and cultured to confluence in 96-well plates and then, the medium has been replaced by an experiment medium containing, or not (control test), the tested extract or the reference (CaCl2 at 1.5 mM) and the cells have been incubated for 72 hours. All experimental conditions have been realized with n=3, for each marker. After incubation, the test medium has been withdrawn and the cells have been rinsed, fixed and permeabilized. The cells have been marked with the primary antibodies directed against the considered proteins (TGK). […] In parallel, the nucleuses of the cells have been stained by the Hoechst 33258 (bisbenzimide). The acquisition of the images has been carried out with a high-resolution imaging system, INCell AnalyzerTM 1000 (GE Healthcare). For each well, 5 captures of digitized images have been performed. The labelings have been quantified by measurement of the fluorescence intensity of the proteins divided by the number of nucleuses identified by the Hoechst (integration of the digital data by the software Developer Toolbow 1.5, GE Healthcare).
# [2] = system: TGK; assay: TGK immunolabeling in situ in NHEK cultures, loosestrife extracts (Example 5); conditions: 72 hours, 1.5 mM
# Experimental: Normal human epidermal keratinocytes (NHEK); reference BIOalternatives K341, used at the third passage.
# Culture conditions: 37° C., 5% CO2
# Culture medium: keratinocytesSFM complemented with an epidermal growth factor (EGF) 0.25 ng/ml, a pituitary extract (PE) 25 μg/ml and gentamycin 25 μg/ml.
# Experiment medium: keratinocytesSFM complemented with gentamycin 25 μg/ml.
# The keratinocytes have been sowed and cultured to confluence in 96-well plates and then, the medium has been replaced by an experiment medium containing, or not (control test), the tested extract or the reference (CaCl2 at 1.5 mM) and the cells have been incubated for 72 hours. All experimental conditions have been realized with n=3, for each marker.
# After incubation, the test medium has been withdrawn and the cells have been rinsed, fixed and permeabilized. […] The acquisition of the images has been carried out with a high-resolution imaging system, INCell Analyzer™ ([…] (GE Healthcare). For each well, 5 captures of digitized images have been performed. The labelings have been quantified by measurement of the fluorescence intensity of the proteins divided by the number of nucleuses identified by the Hoechst (integration of the digital data by the software Developer Toolbow 1.5, GE Healthcare). […]
# The TGK expression is given as the Fluorescence intensity/Number of cells (UA)
# [3] = system: procollagen I; assay: ELISA of procollagen I release by reconstructed skins in depleted medium; conditions: reconstructed skins in depleted culture medium, 30 μg/ml and 60 μg/ml, D9
# Experimental: (§1) Human skins reconstructed from a culture of keratinocytes sowed on a collagen lattice containing fibroblasts. Depleted culture medium: Epilife and supplements (without IGF-1 and without hydrocortisone)+CaCl2 1.5 mM+vitamin C (50 μg/ml). The reconstructed skins have been placed during the passage at the air-liquid interface (D0) in a 6-well plate in the depleted culture medium containing, or not (deficient control condition), the tested compounds. Afterwards, the reconstructed skins have been cultured for 9 days with the renewal of the culture medium containing, or not, the tested compounds every 2 to 3 days from D0 to D5, and then every day between D5 and D9. In parallel, a culture of the reconstructed skins in a complete medium has been realized, as a control test. The evaluation of the tested compound has been performed: • By histological analysis, by the histological observation of the epidermal thickness after HES (Hematoxylin-Eosin-Saffron) staining, • By RT-qPCR, by analysis of the expression of 16 markers (2 of which are reference genes) selected for their importance in cutaneous ageing, on the mRNAs extracted from the reconstructed skins for each treatment, and • By quantifying the release of MMP-1, MMP-3 and procollagen I in the suspensions of the cultures on D9, by ELISA assay, using ELISA assay kits used according to the instructions of the supplier.
# [4] = system: reconstructed skins; assay: RT-qPCR of cutaneous ageing markers in reconstructed skins in depleted medium; conditions: reconstructed skins in deficient medium, 30 μg/ml and 60 μg/ml, dose-dependent
# Experimental: as §1, with “fibroblasts. The keratinocytes are cultured at 37° C., 5% CO2, at the air-liquid interface in one of the following media:” for “fibroblasts.”, “μg/ml). The following cultures have been realized: • Untreated reconstructed skins, • Skins reconstructed in a depleted medium, • Skins reconstructed in a depleted medium, each treated by a compound tested hereinabove, at a concentration of 30 μg/ml or 60 μg/ml.” for “μg/ml).”, “test. All experimental conditions have been realized with n=4.” for “test.”
# [5] = system: reconstructed skins; assay: Histological analysis (HES) of reconstructed skins in depleted medium; conditions: 30 μg/ml and 60 μg/ml, 9 days
# Experimental: Human skins reconstructed from a culture of keratinocytes sowed on a collagen lattice containing fibroblasts. The keratinocytes are cultured at 37° C., 5% CO2, at the air-liquid interface in one of the following media: Depleted culture medium: Epilife and supplements (without IGF-1 and without hydrocortisone)+CaCl2 1.5 mM+vitamin C (50 μg/ml). The following cultures have been realized: • Untreated reconstructed skins, • Skins reconstructed in a depleted medium, • Skins reconstructed in a depleted medium, each treated by a compound tested hereinabove, at a concentration of 30 μg/ml or 60 μg/ml. […] The evaluation of the tested compound has been performed: • By histological analysis, by the histological observation of the epidermal thickness after HES (Hematoxylin-Eosin-Saffron) staining, • By RT-qPCR, by analysis of the expression of 16 markers (2 of which are reference genes) selected for their importance in cutaneous ageing, on the mRNAs extracted from the reconstructed skins for each treatment, and • By quantifying the release of MMP-1, MMP-3 and procollagen I in the suspensions of the cultures on D9, by ELISA assay, using ELISA assay kits used according to the instructions of the supplier.
# [6] = system: MMP-1; assay: ELISA of MMP-1 release by reconstructed skins in depleted medium; conditions: reconstructed skins in depleted culture medium, 30 μg/ml and 60 μg/ml, D9
# Experimental: as §1
# [7] = system: MMP-3; assay: ELISA of MMP-3 release by reconstructed skins in depleted medium; conditions: reconstructed skins in depleted culture medium, 30 μg/ml and 60 μg/ml, D9
# Experimental: as §1
Compound,TGK % Control test ([1]; 0.01 mg/ml) [%],TGK % Stimulation ([1]; 0.01 mg/ml) [%],"TGK Fluorescence intensity/Number of cells, Average ([1]; 0.01 mg/ml) [UA]",TGK Fluorescence intensity/Number of cells ([1]; 0.01 mg/ml),TGK expression in the NHEK cultures (in words) [1],TGK % Control test ([1]; 0.0011 mg/ml) [%],TGK % Stimulation ([1]; 0.0011 mg/ml) [%],"TGK Fluorescence intensity/Number of cells, Average ([1]; 0.0011 mg/ml) [UA]",TGK Fluorescence intensity/Number of cells ([1]; 0.0011 mg/ml),TGK % Control test ([1]; 0.003 mg/ml) [%],TGK % Stimulation ([1]; 0.003 mg/ml) [%],"TGK Fluorescence intensity/Number of cells, Average ([1]; 0.003 mg/ml) [UA]",TGK Fluorescence intensity/Number of cells ([1]; 0.003 mg/ml),further results
"O=C(O)c1cc(O)c(O)c(O)c1 [Gallic acid, gallic acid]",688,588,42738,47924 UA and 36228 UA and 44065 UA,induce the TGK expression in the NHEK cultures in a dose-dependent fashion,,,,,,,,,"TGK % Control test ([1]; 0.0003 mg/ml): 285%; TGK % Stimulation ([1]; 0.0003 mg/ml): 165%; TGK Fluorescence intensity/Number of cells, Average ([1]; 0.0003 mg/ml): 16260 UA; TGK Fluorescence intensity/Number of cells ([1]; 0.0003 mg/ml): 18328 UA and 15263 UA and 15730 UA; TGK % Control test ([1]; 0.03 mg/ml): 1110%; TGK % Stimulation ([1]; 0.03 mg/ml): 1019%; TGK Fluorescence intensity/Number of cells, Average ([1]; 0.03 mg/ml): 60518 UA; TGK Fluorescence intensity/Number of cells ([1]; 0.03 mg/ml): 73870 UA and 53013 UA and 81670 UA"
"[Ca+2].[Cl-].[Cl-] [CaCl2, reference compound]",,,,,,,,,,,,,,"TGK expression Average (Fluorescence intensity/Number of cells) [2]: 69610 UA; TGK expression, Control test % [2]: 316%; TGK % Control test ([1]; 1.5 mM): 473%; TGK % Stimulation ([1]; 1.5 mM): 373%; TGK Fluorescence intensity/Number of cells, Average ([1]; 1.5 mM): 29160 UA; TGK Fluorescence intensity/Number of cells ([1]; 1.5 mM): 24066 UA and 30013 UA and 23527 UA; TGK Fluorescence intensity/Number of cells ([1]; 1.5 mM, listed as Ca): 22987 UA and 24146 UA and 32180 UA; TGK % Control test ([1]; 1.5 mM, listed as Ca): 425%; TGK % Stimulation ([1]; 1.5 mM, listed as Ca): 325%; TGK Fluorescence intensity/Number of cells, Average ([1]; 1.5 mM, listed as Ca): 20404 UA"
O=C1OC[C@H]2OC(=O)c3cc(O)c(O)c(O)c3-c3c(O)c(O)c(O)c4c3C(=O)O[C@H]([C@H]3OC(=O)c5c-4c(O)c(O)c(O)c5[C@@H]3O)[C@@H]2OC(=O)c2cc(O)c(O)c(O)c2-c2c1cc(O)c(O)c2O [Vescalagin],702,602,43284,27714 UA and 45383 UA and 98755 UA,induce the TGK expression in the NHEK cultures in a dose-dependent fashion,287,187,17722,22033 UA and 16688 UA and 14446 UA,589,589,42460,32859 UA and 40124 UA and 54396 UA,"release of procollagen I (ELISA) [3]: No modification; expression of the inflammation markers (RT-qPCR) [4]: decrease of the expression of IL1B and PTGS2 to a lesser extent; expression of the marker of the extracellular matrix COLIA1 (RT-qPCR) [4]: increase of the expression of the marker of the extracellular matrix COLIA1; expression of the markers involved in the degradation of the extracellular matrix (RT-qPCR) [4]: decrease of the expression of the genes MMP1, MMP3 and TFPI2; expression of the markers of the cells of the basal layer (RT-qPCR) [4]: increase of the marker of the cell cycle MKI67; expression of the more tardive markers of the differentiation of the keratinocytes (RT-qPCR) [4]: decrease of the expression of TGM1 and CDSN; epidermis/dermis cohesion (HES) [5]: Partial recovery of the epidermis/dermis cohesion; histology (HES) [5]: improvement of their histology; release of MMP-1 (ELISA) [6]: major and significant decrease; release of MMP-3 (ELISA) [7]: major and significant decrease"
O=C1OC[C@H]2OC(=O)c3cc(O)c(O)c(O)c3-c3c(O)c(O)c(O)c4c3C(=O)O[C@H]([C@H]3OC(=O)c5c-4c(O)c(O)c(O)c5[C@H]3O)[C@@H]2OC(=O)c2cc(O)c(O)c(O)c2-c2c1cc(O)c(O)c2O [Castalagin],714,614,44055,59547 UA and 22164 UA and 50453 UA,induce the TGK expression in the NHEK cultures in a dose-dependent fashion,202,162,16135,21020 UA and 15623 UA and 11760 UA,436,330,26867,30752 UA and 20672 UA and 23177 UA,
